Source: US20250276964A1 (Novartis AG, priority 2021, published 2025)

Target: T1, WIZ (Homo sapiens, UniProt O95785+Q96SW2)
T1 construct: expressed in transfected cells
Experiment: Quantification of WIZ protein levels in HiBit tag fusion protein assay (WIZ HiBit assay in 293T cells)
Assay type: cell-based
Conditions: for Dmax at 25 µM / remaining activity at 25 µM: HEK-293T; for Dmax at 25 µM: 100 minus Amax at 25 uM, read-out: % degradation of WIZ (100-Amax); for remaining activity at 25 µM: DMSO-normalized, curve-fitted percentage of WIZ-HiBit remaining at 25 uM, read-out: WIZ Amax; for DC50: WIZ HiBit assay in 293T cells, 10-point, 5-fold dilution, highest concentration 25 μM, about 18 hours, read-out: WIZ AC50
Summary of the method: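 293T cells stably carrying single-copy HiBit-WIZ (HSVTK promoter) treated ~18 h at 37 °C with 10-point, 5-fold dilutions, top 25 μM. Lytic HiBit luminescence read; Amax is DMSO-normalised, curve-fitted % WIZ-HiBit remaining at 25 uM.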

T1 sequence (O95785 whole entry): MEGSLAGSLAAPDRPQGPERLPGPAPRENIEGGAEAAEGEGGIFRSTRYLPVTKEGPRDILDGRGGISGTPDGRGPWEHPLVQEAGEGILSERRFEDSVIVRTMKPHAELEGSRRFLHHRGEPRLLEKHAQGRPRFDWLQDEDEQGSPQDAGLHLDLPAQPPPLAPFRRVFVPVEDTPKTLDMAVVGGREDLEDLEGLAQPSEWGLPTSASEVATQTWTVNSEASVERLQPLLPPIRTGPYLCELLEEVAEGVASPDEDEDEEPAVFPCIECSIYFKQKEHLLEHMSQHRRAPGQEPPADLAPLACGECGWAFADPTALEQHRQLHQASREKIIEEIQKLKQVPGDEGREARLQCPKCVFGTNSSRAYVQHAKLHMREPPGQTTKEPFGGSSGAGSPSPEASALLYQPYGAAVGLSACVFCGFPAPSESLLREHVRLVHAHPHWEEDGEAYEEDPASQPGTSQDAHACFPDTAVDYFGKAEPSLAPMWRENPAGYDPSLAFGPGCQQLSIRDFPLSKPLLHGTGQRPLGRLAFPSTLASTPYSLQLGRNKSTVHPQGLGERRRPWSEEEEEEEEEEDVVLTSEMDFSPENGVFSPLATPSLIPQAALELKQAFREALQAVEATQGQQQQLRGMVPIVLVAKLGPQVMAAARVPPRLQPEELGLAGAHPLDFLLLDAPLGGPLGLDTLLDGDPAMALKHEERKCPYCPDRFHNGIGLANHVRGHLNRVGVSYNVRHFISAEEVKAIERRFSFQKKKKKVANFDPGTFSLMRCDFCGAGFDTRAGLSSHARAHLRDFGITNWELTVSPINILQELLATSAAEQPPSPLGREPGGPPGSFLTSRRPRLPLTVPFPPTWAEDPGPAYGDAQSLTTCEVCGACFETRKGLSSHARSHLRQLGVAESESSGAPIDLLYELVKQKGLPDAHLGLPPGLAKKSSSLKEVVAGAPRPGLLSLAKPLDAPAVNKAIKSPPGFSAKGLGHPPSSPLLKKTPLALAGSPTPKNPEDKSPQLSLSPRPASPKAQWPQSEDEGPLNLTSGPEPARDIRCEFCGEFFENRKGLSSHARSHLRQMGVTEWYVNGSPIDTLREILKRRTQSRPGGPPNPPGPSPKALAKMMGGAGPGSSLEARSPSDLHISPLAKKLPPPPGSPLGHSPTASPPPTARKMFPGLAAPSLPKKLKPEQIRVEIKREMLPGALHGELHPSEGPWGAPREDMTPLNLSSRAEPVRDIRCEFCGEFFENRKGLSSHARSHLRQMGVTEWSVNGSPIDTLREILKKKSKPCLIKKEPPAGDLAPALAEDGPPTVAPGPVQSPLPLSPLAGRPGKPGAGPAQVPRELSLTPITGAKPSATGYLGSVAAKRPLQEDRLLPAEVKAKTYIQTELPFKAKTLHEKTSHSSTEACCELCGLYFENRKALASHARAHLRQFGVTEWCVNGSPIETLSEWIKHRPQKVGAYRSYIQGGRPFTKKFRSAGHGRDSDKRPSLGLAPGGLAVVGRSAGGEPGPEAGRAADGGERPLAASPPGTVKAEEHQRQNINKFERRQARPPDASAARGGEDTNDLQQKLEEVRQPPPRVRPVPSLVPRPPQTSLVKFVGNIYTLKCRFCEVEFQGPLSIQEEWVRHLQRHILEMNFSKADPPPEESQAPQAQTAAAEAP
T1 sequence (Q96SW2 whole entry): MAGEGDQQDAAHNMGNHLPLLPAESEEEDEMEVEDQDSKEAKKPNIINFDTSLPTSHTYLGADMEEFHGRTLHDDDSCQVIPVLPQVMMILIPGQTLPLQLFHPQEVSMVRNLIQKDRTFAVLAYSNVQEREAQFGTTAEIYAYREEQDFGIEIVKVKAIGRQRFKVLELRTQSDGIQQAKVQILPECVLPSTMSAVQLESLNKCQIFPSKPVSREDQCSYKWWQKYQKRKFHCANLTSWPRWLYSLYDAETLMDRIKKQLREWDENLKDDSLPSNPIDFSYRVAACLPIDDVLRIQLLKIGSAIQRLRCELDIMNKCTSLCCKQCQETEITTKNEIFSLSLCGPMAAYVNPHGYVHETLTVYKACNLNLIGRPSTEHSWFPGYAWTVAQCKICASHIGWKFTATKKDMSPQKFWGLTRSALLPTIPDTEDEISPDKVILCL
T1 sequence (Q16531 whole entry partner): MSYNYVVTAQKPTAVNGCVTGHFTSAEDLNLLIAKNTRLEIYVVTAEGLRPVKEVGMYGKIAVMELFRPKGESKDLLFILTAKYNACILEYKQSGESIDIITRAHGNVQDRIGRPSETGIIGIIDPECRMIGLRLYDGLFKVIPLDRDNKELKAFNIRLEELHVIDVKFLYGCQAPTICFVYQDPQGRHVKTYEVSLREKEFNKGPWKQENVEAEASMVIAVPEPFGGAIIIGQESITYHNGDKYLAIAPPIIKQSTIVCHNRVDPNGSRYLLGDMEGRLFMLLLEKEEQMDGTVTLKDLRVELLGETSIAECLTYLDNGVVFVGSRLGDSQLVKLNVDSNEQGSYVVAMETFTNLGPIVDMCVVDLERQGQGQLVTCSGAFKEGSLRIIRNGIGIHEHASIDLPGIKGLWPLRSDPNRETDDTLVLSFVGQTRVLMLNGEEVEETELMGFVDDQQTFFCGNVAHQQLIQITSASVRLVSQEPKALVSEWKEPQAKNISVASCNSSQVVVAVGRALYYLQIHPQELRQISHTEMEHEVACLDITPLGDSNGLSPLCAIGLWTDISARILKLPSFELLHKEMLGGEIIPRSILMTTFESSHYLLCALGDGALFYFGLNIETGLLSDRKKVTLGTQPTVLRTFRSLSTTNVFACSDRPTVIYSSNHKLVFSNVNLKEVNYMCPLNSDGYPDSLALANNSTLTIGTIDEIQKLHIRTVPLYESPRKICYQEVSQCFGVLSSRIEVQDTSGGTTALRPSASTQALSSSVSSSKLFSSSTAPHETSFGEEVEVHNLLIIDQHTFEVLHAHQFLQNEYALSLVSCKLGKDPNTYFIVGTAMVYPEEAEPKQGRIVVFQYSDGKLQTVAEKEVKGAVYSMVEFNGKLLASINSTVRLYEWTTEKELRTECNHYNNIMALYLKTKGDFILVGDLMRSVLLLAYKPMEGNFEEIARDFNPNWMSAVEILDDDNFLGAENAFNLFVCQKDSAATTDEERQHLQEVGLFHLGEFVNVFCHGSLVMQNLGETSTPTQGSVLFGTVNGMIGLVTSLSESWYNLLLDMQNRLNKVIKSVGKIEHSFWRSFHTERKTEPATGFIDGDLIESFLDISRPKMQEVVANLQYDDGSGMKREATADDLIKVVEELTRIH

SMILES | Dmax at 25 µM | remaining activity at 25 µM | DC50
CN1[C@@H]2CC[C@H]1CN(Cc1ccc3onc(N4CCC(=O)NC4=O)c3c1)C2 [Example 101, 1-(5-(((1R,5S)-8-methyl-3,8-diazabicyclo[3.2.1]octan-3-yl)methyl)benzo[d]isoxazol-3-yl)dihydropyrimidine-2,4(1H,3H)-dione] | 78% | 22% | 13 nM
O=C1CCN(c2noc3ccc(CN4[C@@H]5CC[C@H]4CNC5)cc23)C(=O)N1 [Example 102, 1-(5-(((1R,5S)-3,8-diazabicyclo[3.2.1]octan-8-yl)methyl)benzo[d]isoxazol-3-yl)dihydropyrimidine-2,4(1H,3H)-dione] | 80% | 20% | 462 nM
CN1C[C@H]2CC[C@@H](C1)N2Cc1ccc2onc(N3CCC(=O)NC3=O)c2c1 [Example 103, 1-(5-(((1R,5S)-3-methyl-3,8-diazabicyclo[3.2.1]octan-8-yl)methyl)benzo[d]isoxazol-3-yl)dihydropyrimidine-2,4(1H,3H)-dione] | 86% | 14% | 68 nM
CS(=O)(=O)N1C[C@H]2CC[C@@H](C1)N2Cc1ccc2onc(N3CCC(=O)NC3=O)c2c1 [Example 104, 1-(5-(((1R,5S)-3-(methylsulfonyl)-3,8-diazabicyclo[3.2.1]octan-8-yl)methyl)benzo[d]isoxazol-3-yl)dihydropyrimidine-2,4(1H,3H)-dione] | 85% | 15% | 181 nM
C[C@H]1CN(S(C)(=O)=O)[C@@H](C)CN1Cc1ccc2onc(N3CCC(=O)NC3=O)c2c1 [Example 105, 1-(5-(((2S,5S)-2,5-dimethyl-4-(methylsulfonyl)piperazin-1-yl)methyl)benzo[d]isoxazol-3-yl)dihydropyrimidine-2,4(1H,3H)-dione] | 75% | 25% | 373 nM
C[C@H]1CN(Cc2ccc3onc(N4CCC(=O)NC4=O)c3c2)[C@@H](C)CN1C [Example 106, 1-(5-(((2S,5S)-2,4,5-trimethylpiperazin-1-yl)methyl)benzo[d]isoxazol-3-yl)dihydropyrimidine-2,4(1H,3H)-dione] | 86% | 14% | 109 nM
C[C@H]1CN(CC2CCOCC2)[C@@H](C)CN1Cc1ccc2onc(N3CCC(=O)NC3=O)c2c1 [Example 107, 1-(5-(((2S,5S)-2,5-dimethyl-4-((tetrahydro-2H-pyran-4-yl)methyl)piperazin-1-yl)methyl)benzo[d]isoxazol-3-yl)dihydropyrimidine-2,4(1H,3H)-dione] | 86% | 14% | 56 nM
C[C@@H]1CN(C)C[C@H](C)N1Cc1ccc2onc(N3CCC(=O)NC3=O)c2c1 [Example 108, 1-(5-(((2R,6S)-2,4,6-trimethylpiperazin-1-yl)methyl)benzo[d]isoxazol-3-yl)dihydropyrimidine-2,4(1H,3H)-dione] | 69% | 31% | 577 nM
C[C@@H]1CN(CC2CCOCC2)C[C@H](C)N1Cc1ccc2onc(N3CCC(=O)NC3=O)c2c1 [Example 109, 1-(5-(((2R,6S)-2,6-dimethyl-4-((tetrahydro-2H-pyran-4-yl)methyl)piperazin-1-yl)methyl)benzo[d]isoxazol-3-yl)dihydropyrimidine-2,4(1H,3H)-dione] | 73% | 27% | 355 nM
O=C1CCN(c2noc3ccc(CN4CCN5CCOC[C@H]5C4)cc23)C(=O)N1 [Example 110, (R)-1-(5-((hexahydropyrazino[2,1-c][1,4]oxazin-8(1H)-yl)methyl)benzo[d]isoxazol-3-yl)dihydropyrimidine-2,4(1H,3H)-dione] | 85% | 15% | 65 nM
O=C1CCN(c2noc3ccc(CN4CCN5CCOC[C@@H]5C4)cc23)C(=O)N1 [Example 111, (S)-1-(5-((hexahydropyrazino[2,1-c][1,4]oxazin-8(1H)-yl)methyl)benzo[d]isoxazol-3-yl)dihydropyrimidine-2,4(1H,3H)-dione] | 85% | 15% | 61 nM
O=C1CCN(c2noc3ccc(CN4CCN5[C@@H](CCS5(=O)=O)C4)cc23)C(=O)N1 [Example 112, (S)-1-(5-((1,1-dioxidohexahydro-5H-isothiazolo[2,3-a]pyrazin-5-yl)methyl)benzo[d]isoxazol-3-yl)dihydropyrimidine-2,4(1H,3H)-dione] | 87% | 13% | 45 nM
CC(C)CN1CCN(Cc2ccc3onc(N4CCC(=O)NC4=O)c3c2)CC1=O [Example 113, 1-(5-((4-isobutyl-3-oxopiperazin-1-yl)methyl)benzo[d]isoxazol-3-yl)dihydropyrimidine-2,4(1H,3H)-dione] | 66% | 34% | 256 nM
COC[C@H]1CN(Cc2ccc3onc(N4CCC(=O)NC4=O)c3c2)CCN1CC(C)C [Example 114, (R)-1-(5-((4-isobutyl-3-(methoxymethyl)piperazin-1-yl)methyl)benzo[d]isoxazol-3-yl)dihydropyrimidine-2,4(1H,3H)-dione] | 85% | 15% | 115 nM
O=C1CCN(c2noc3ccc(CN4CCN(CC5CCOCC5)[C@@H](C(F)F)C4)cc23)C(=O)N1 [Example 115, (R)-1-(5-((3-(difluoromethyl)-4-((tetrahydro-2H-pyran-4-yl)methyl)piperazin-1-yl)methyl)benzo[d]isoxazol-3-yl)dihydropyrimidine-2,4(1H,3H)-dione] | 78% | 22% | 53 nM
O=C1CCN(c2noc3ccc(CN4CCN5C(=O)COC[C@H]5C4)cc23)C(=O)N1 [Example 116, (R)-1-(5-((4-oxohexahydropyrazino[2,1-c][1,4]oxazin-8(1H)-yl)methyl)benzo[d]isoxazol-3-yl)dihydropyrimidine-2,4(1H,3H)-dione] | 78% | 22% | 193 nM
COC[C@H]1CN(Cc2ccc3onc(N4CCC(=O)NC4=O)c3c2)CCN1C [Example 117, (R)-1-(5-((3-(methoxymethyl)-4-methylpiperazin-1-yl)methyl)benzo[d]isoxazol-3-yl)dihydropyrimidine-2,4(1H,3H)-dione] | 87% | 13% | 578 nM
CN1CCN(Cc2ccc3onc(N4CCC(=O)NC4=O)c3c2)C[C@@H]1C(F)F [Example 118, (R)-1-(5-((3-(difluoromethyl)-4-methylpiperazin-1-yl)methyl)benzo[d]isoxazol-3-yl)dihydropyrimidine-2,4(1H,3H)-dione] | 80% | 20% | 208 nM
O=C1CCN(c2noc3ccc(CN4CCN(C5CC5)CC4)cc23)C(=O)N1 [Example 119, 1-(5-((4-cyclopropylpiperazin-1-yl)methyl)benzo[d]isoxazol-3-yl)dihydropyrimidine-2,4(1H,3H)-dione] | 86% | 14% | 189 nM
C[C@@H]1CN(C2CC2)CCN1Cc1ccc2onc(N3CCC(=O)NC3=O)c2c1 [Example 120, (R)-1-(5-((4-cyclopropyl-2-methylpiperazin-1-yl)methyl)benzo[d]isoxazol-3-yl)dihydropyrimidine-2,4(1H,3H)-dione] | 83% | 17% | 538 nM
CC(c1ccc2onc(N3CCC(=O)NC3=O)c2c1)N1CCN(C)CC1 (stereo not drawn) [Example 127, 1-(5-(1-(4-methylpiperazin-1-yl)ethyl)benzo[d]isoxazol-3-yl)dihydropyrimidine-2,4(1H,3H)-dione] | 91% | 9% | 149 nM
Cc1c(CN2CCN(CC(C)C)[C@@H](C)C2)ccc2onc(N3CCC(=O)NC3=O)c12 [Example 128, (S)-1-(5-((4-isobutyl-3-methylpiperazin-1-yl)methyl)-4-methylbenzo[d]isoxazol-3-yl)dihydropyrimidine-2,4(1H,3H)-dione] | 88% | 12% | 7 nM
Cc1c(CN2CCN(C)[C@@H](C)C2)ccc2onc(N3CCC(=O)NC3=O)c12 [Example 129, (S)-1-(5-((3,4-dimethylpiperazin-1-yl)methyl)-4-methylbenzo[d]isoxazol-3-yl)dihydropyrimidine-2,4(1H,3H)-dione] | 86% | 14% | 9 nM
Cc1c(CN2CCN(CC3CC3)[C@@H](C)C2)ccc2onc(N3CCC(=O)NC3=O)c12 [Example 130, (S)-1-(5-((4-(cyclopropylmethyl)-3-methylpiperazin-1-yl)methyl)-4-methylbenzo[d]isoxazol-3-yl)dihydropyrimidine-2,4(1H,3H)-dione] | 86% | 14% | 6 nM
